In the supplement of paper PMC10627819:

Key:
Test in all cases: fitness (endpoint OD595 vs no drug) (fraction); higher = more growth
[1] = system: B. subtilis 168
In short: (§1)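 Bacterial growth was followed in 384-well plates seeded at OD595 0.01, with 30 µl per well, or 55 µl for S. pneumoniae, in TSB, LB Lennox or CY at 37 °C. OD595 was read every 30 min for 14 h, and each reading had the first reading subtracted as background. Fitness is the background-corrected optical density at entry into stationary phase divided by the robust mean of the no-drug control wells. This ratio is capped at 1.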

[2] = system: S. pneumoniae D39V
In short: as §1

[3] = system: S. aureus Newman; conditions: one replicate
In short: as §1

O=C(O)[C@H]1/C(=C/CO)O[C@@H]2CC(=O)N21 [Clavulanic acid] + CN(C)c1cc(NC(=O)CNC(C)(C)C)c(O)c2c1C[C@H]1C[C@H]3[C@H](N(C)C)C(O)=C(C(N)=O)C(=O)[C@@]3(O)C(O)=C1C2=O [Tigecycline]
Conditions	fitness
[1], first compound 1.5 µg/mL, partner 0.039 µg/mL	0.98
[1], first compound 1.5 µg/mL, partner 0.078 µg/mL	0.919
[1], first compound 1.5 µg/mL, partner 0.156 µg/mL	0.884
[1], first compound 3 µg/mL, partner 0.039 µg/mL	0.888
[1], first compound 3 µg/mL, partner 0.078 µg/mL	0.899
[1], first compound 3 µg/mL, partner 0.156 µg/mL	0.889
[1], first compound 6 µg/mL, partner 0.039 µg/mL	0.82
[1], first compound 6 µg/mL, partner 0.078 µg/mL	0.796
[1], first compound 6 µg/mL, partner 0.156 µg/mL	0.79
[2], first compound 0.5 µg/mL, partner 0.325 µg/mL	≥ 1
[2], first compound 0.5 µg/mL, partner 0.65 µg/mL	0.965
[2], first compound 0.5 µg/mL, partner 1.3 µg/mL	0.931
[2], first compound 0.5 µg/mL, partner 2.6 µg/mL	0.866
[2], first compound 1 µg/mL, partner 0.325 µg/mL	0.908
[2], first compound 1 µg/mL, partner 0.65 µg/mL	0.889
[2], first compound 1 µg/mL, partner 1.3 µg/mL	0.877
[2], first compound 1 µg/mL, partner 2.6 µg/mL	0.814
[2], first compound 2 µg/mL, partner 0.325 µg/mL	0.717
[2], first compound 2 µg/mL, partner 0.65 µg/mL	0.782
[2], first compound 2 µg/mL, partner 1.3 µg/mL	0.815
[2], first compound 2 µg/mL, partner 2.6 µg/mL	0.755
[3], first compound 0.03125 µg/mL, partner 0.039 µg/mL	0.952
[3], first compound 0.03125 µg/mL, partner 0.078 µg/mL	0.933
[3], first compound 0.03125 µg/mL, partner 0.156 µg/mL	0.96
[3], first compound 0.0625 µg/mL, partner 0.039 µg/mL	0.987
[3], first compound 0.0625 µg/mL, partner 0.078 µg/mL	1
[3], first compound 0.0625 µg/mL, partner 0.156 µg/mL	0.971
[3], first compound 0.125 µg/mL, partner 0.039 µg/mL	0.919
[3], first compound 0.125 µg/mL, partner 0.078 µg/mL	0.884
[3], first compound 0.125 µg/mL, partner 0.156 µg/mL	0.898

fitness, [1], one replicate
Conditions	first compound 1.5 µg/mL	first compound 3 µg/mL	first compound 6 µg/mL
partner 0.125 µg/mL	0.956	0.952	0.814
partner 0.25 µg/mL	0.863	0.928	0.821
partner 0.5 µg/mL	0.866	0.865	0.765

O=C(O)[C@H]1/C(=C/CO)O[C@@H]2CC(=O)N21 [Clavulanic acid] + CN(N=O)C(=O)N[C@@H](C=O)[C@@H](O)[C@H](O)[C@H](O)CO [Streptozotocin]
fitness
Conditions	partner 0.15 µg/mL	partner 0.3 µg/mL	partner 0.6 µg/mL	partner 1.2 µg/mL	partner 2.4 µg/mL	partner 4.8 µg/mL
[1], first compound 1.5 µg/mL	0.914	0.898	0.911	–	–	–
[1], first compound 3 µg/mL	0.861	0.848	0.929	–	–	–
[1], first compound 6 µg/mL	0.779	0.772	0.75	–	–	–
[2], first compound 0.5 µg/mL	–	–	–	0.937	0.979	0.944
[2], first compound 1 µg/mL	–	–	–	0.882	0.947	0.864
[2], first compound 2 µg/mL	–	–	–	0.784	0.876	0.747
[3], first compound 0.03125 µg/mL	0.937	0.91	0.667	–	–	–
[3], first compound 0.0625 µg/mL	0.977	0.911	0.761	–	–	–
[3], first compound 0.125 µg/mL	0.923	0.865	0.655	–	–	–

O=C(O)[C@H]1/C(=C/CO)O[C@@H]2CC(=O)N21 [Clavulanic acid] + CN[C@@H]1[C@H](O)[C@H](NC)[C@H]2O[C@@]3(O)C(=O)C[C@@H](C)O[C@H]3O[C@@H]2[C@H]1O [Spectinomycin]
fitness
Conditions	partner 2 µg/mL	partner 4 µg/mL	partner 8 µg/mL	partner 16 µg/mL
[1], first compound 1.5 µg/mL	0.892	0.929	0.934	–
[1], first compound 3 µg/mL	0.951	0.868	0.867	–
[1], first compound 6 µg/mL	0.832	0.755	0.72	–
[2], first compound 0.5 µg/mL	–	0.916	0.852	0.658
[2], first compound 1 µg/mL	–	0.809	0.845	0.621
[2], first compound 2 µg/mL	–	0.79	0.749	0.447
[3], first compound 0.03125 µg/mL	–	0.961	0.945	0.92
[3], first compound 0.0625 µg/mL	–	0.922	0.945	0.885
[3], first compound 0.125 µg/mL	–	0.916	0.958	0.905

O=C(O)[C@H]1/C(=C/CO)O[C@@H]2CC(=O)N21 [Clavulanic acid] + CN[C@@H]1[C@H](O[C@H]2[C@H](O[C@H]3[C@H](O)[C@@H](O)[C@H](N=C(N)N)[C@@H](O)[C@@H]3N=C(N)N)O[C@@H](C)[C@]2(O)C=O)O[C@@H](CO)[C@H](O)[C@H]1O [Streptomycin]
fitness
Conditions	partner 2 µg/mL	partner 4 µg/mL	partner 8 µg/mL
[1], first compound 1.5 µg/mL	0.963	–	0.0564
[1], first compound 3 µg/mL	0.93	–	0.0395
[1], first compound 6 µg/mL	0.804	–	0.0332
[2], first compound 0.5 µg/mL	0.955	0.929	0.901
[2], first compound 1 µg/mL	0.899	0.886	0.855
[2], first compound 2 µg/mL	0.757	0.78	0.768
[3], first compound 0.03125 µg/mL	0.945	0.937	0.753
[3], first compound 0.0625 µg/mL	≥ 1	0.936	0.786
[3], first compound 0.125 µg/mL	0.991	0.938	0.786

[2], partner 16 µg/mL, one replicate
Conditions	fitness
first compound 0.5 µg/mL	0.761
first compound 1 µg/mL	0.774
first compound 2 µg/mL	0.649

O=C(O)[C@H]1/C(=C/CO)O[C@@H]2CC(=O)N21 [Clavulanic acid] + CO/N=C(\C(=O)N[C@@H]1C(=O)N2C(C(=O)O)=C(COC(C)=O)CS[C@H]12)c1csc(N)n1 [Cefotaxime]
fitness, [1], one replicate
Conditions	partner 0.00775 µg/mL	partner 0.0155 µg/mL	partner 0.031 µg/mL	partner 0.0625 µg/mL	partner 0.125 µg/mL	partner 0.25 µg/mL
first compound 1.5 µg/mL	0.759	0.65	0.525	0.486	0.286	0.225
first compound 3 µg/mL	0.722	0.593	0.489	0.455	0.322	0.15
first compound 6 µg/mL	0.637	0.467	0.384	0.391	0.258	0.185

Conditions	fitness
[1], first compound 1.5 µg/mL, partner 0.5 µg/mL	0.232
[1], first compound 1.5 µg/mL, partner 1 µg/mL	0.154
[1], first compound 1.5 µg/mL, partner 2 µg/mL	0.0721
[1], first compound 3 µg/mL, partner 0.5 µg/mL	0.218
[1], first compound 3 µg/mL, partner 1 µg/mL	0.118
[1], first compound 3 µg/mL, partner 2 µg/mL	0.0681
[1], first compound 6 µg/mL, partner 0.5 µg/mL	0.14
[1], first compound 6 µg/mL, partner 1 µg/mL	0.0836
[1], first compound 6 µg/mL, partner 2 µg/mL	0.0583
[2], first compound 0.5 µg/mL, partner 0.0018 µg/mL	0.99
[2], first compound 0.5 µg/mL, partner 0.0035 µg/mL	0.966
[2], first compound 1 µg/mL, partner 0.0018 µg/mL	0.971
[2], first compound 1 µg/mL, partner 0.0035 µg/mL	0.927
[2], first compound 1 µg/mL, partner 0.007 µg/mL	0.789
[2], first compound 2 µg/mL, partner 0.0018 µg/mL	0.844
[2], first compound 2 µg/mL, partner 0.0035 µg/mL	0.824
[2], first compound 2 µg/mL, partner 0.007 µg/mL	0.582
[3], first compound 0.03125 µg/mL, partner 0.078 µg/mL	0.994
[3], first compound 0.03125 µg/mL, partner 0.156 µg/mL	0.8
[3], first compound 0.03125 µg/mL, partner 0.312 µg/mL	0.807
[3], first compound 0.0625 µg/mL, partner 0.078 µg/mL	0.898
[3], first compound 0.0625 µg/mL, partner 0.156 µg/mL	0.741
[3], first compound 0.0625 µg/mL, partner 0.312 µg/mL	0.683
[3], first compound 0.125 µg/mL, partner 0.078 µg/mL	0.822
[3], first compound 0.125 µg/mL, partner 0.156 µg/mL	0.703
[3], first compound 0.125 µg/mL, partner 0.312 µg/mL	0.709
